pIC50: −log10 of the molar value. Read-outs that look alike come from different tables or passages of the source.
Assays:
[1] = target: T1, smooth muscle myosin S1 (Gallus gallus, UniProt P10587); experiment: Inhibition of hydrolysis of ATP by smooth muscle myosin S1 fragments; format: biochemical; settings: 100 μM compound
T1 construct: purchased Cytoskeleton #CS-MYS05
Protocol: The purpose of this test was to evaluate the ability of compounds to inhibit the hydrolysis of ATP by smooth muscle myosin Si fragments. The determination method was as follows: • 1. Solution formulation • F-actin polymer: Cardiac Actin powder (#CS-AD99, Cytoskeleton) was dissolved in a buffer (5 mM Pipes-KOH solution, PH=7.0, containing 100 μM ATP and 500 μM DTT) to form a 2 mg/mL solution and the solution was left at room temperature for 30 min; then 2 mM MgCl2 and 2 mM EGTA were added and the obtained system was left at room temperature for 40 min; • Smooth muscle SI fragment (#CS-MYS05, Cytoskeleton) was diluted with a pre-cooled PM12 buffer containing 1 mM DTT (12 mM Pipes-KOH solution, PH=7.0, containing 2 mM MgCl2) to form a 0.7 mg/mL solution; • ATP (#BSA04-001, Cytoskeleton) was diluted to 5 mM working solution with 15 mM Tris-HCL (PH=7.5); • 2. […] Experimental steps: • adding 10 μL of compound working solution+6 μL of F-actin polymer+4 μL of Smooth muscle Si fragment solution to the compound wells; • adding 10 μL of PM12 buffer containing DMSO+6 μL of F-actin polymer+4 μL of Smooth muscle S1 fragment solution to positive control wells; • adding 10 μL of PM12 buffer containing DMSO+6 μL of F-actin polymer+4 μL of PM12 buffer to negative control wells; • adding […] of 5 mM ATP working solution to all test wells to start the reaction, gently mixing and incubating at 37° C. for 20 min; • after the reaction was completed, taking 6 μLL of reaction liquid, adding 24 μL of PM12 buffer for 5-fold dilution, then detecting the content of the product Pi with a phosphate kit (#BK054, Cytoskeleton); • adding a standard according to the instructions, adding 70 μL of CytoPhos Reagent (#BK054, Cytoskeleton) to all wells and incubating at room temperature for 10 min before detection. • 4. Detection: • the OD value of each well was detected at 650 nm. The standard curve was fitted according to Pi standard concentration and OD value, and the Pi concentration of each test well was obtained. Inhibition (%)=(positive control well−test well)/positive control well*100%.

[2] = test system: rabbit skeletal muscle myosin; experiment: Inhibition of hydrolysis of ATP by rabbit skeletal muscle myosin; format: biochemical
Protocol: The purpose of this test was to evaluate the ability of compounds to inhibit the hydrolysis of ATP by rabbit skeletal muscle myosin. The determination method was as follows:
• Preformed F-actin filaments (#AKF99-B, Cytoskeleton) were diluted to 1 mg/mL with Reaction buffer (25 mM Tris-HCL, pH 7.5+35 mM KCl+0.1 mM EGTA+1 mM MgCl2); • Rabbit myosin (#MYO2-A, Cytoskeleton) was diluted to 0.1 mg/mL with Resuspension buffer (15 mM Tris-HCL, PH7.5+0.2 M KCl+1 mM MgCl2); • ATP (#BSA04-001, Cytoskeleton) was diluted to 3 mM working solution with 15 mM Tris-HCL (PH=7.5);
• adding 13 μL reaction buffer+12 μL F-actin to actin control wells; • adding 10 μL reaction buffer+12 μL F-actin+3 μL myosin II to positive control wells; • adding 10 μL of compound working solution+12 μL of F-actin+3 μL of myosin II to the compound wells; • adding 5 μL of ATP working solution to all test wells to start the reaction, and simultaneously adding a sample to the Pi standard wells according to the instruction (#BK054, Cytoskeleton); • gently mixing and accurately incubating at 37° C. for 60 min; • adding 70 μL of CytoPhos Reagent (#BK054, Cytoskeleton) to each well and incubating for 10 min to stop the reaction.
• the OD value of each well was detected at 650 nm using the endpoint method. The standard curve was fitted according to Pi concentration and OD value, and the Pi concentration of each test well was obtained. Inhibition (%)=(Pi positive control well-Pi test well)/Pi positive control well*100%. The Inhibition %-[…] curve was fitted with Graphpad Prism 8 software, and IC50 was calculated.

[3] = target: T2, cardiac myosin SII (Bos taurus, UniProt Q9BE39); experiment: Inhibition of hydrolysis of ATP by cardiac myosin SII; format: biochemical; settings: 100 μM compound
T2 construct: purchased Cytoskeleton #MYO3-A
T2 sequence (Q9BE39 whole entry): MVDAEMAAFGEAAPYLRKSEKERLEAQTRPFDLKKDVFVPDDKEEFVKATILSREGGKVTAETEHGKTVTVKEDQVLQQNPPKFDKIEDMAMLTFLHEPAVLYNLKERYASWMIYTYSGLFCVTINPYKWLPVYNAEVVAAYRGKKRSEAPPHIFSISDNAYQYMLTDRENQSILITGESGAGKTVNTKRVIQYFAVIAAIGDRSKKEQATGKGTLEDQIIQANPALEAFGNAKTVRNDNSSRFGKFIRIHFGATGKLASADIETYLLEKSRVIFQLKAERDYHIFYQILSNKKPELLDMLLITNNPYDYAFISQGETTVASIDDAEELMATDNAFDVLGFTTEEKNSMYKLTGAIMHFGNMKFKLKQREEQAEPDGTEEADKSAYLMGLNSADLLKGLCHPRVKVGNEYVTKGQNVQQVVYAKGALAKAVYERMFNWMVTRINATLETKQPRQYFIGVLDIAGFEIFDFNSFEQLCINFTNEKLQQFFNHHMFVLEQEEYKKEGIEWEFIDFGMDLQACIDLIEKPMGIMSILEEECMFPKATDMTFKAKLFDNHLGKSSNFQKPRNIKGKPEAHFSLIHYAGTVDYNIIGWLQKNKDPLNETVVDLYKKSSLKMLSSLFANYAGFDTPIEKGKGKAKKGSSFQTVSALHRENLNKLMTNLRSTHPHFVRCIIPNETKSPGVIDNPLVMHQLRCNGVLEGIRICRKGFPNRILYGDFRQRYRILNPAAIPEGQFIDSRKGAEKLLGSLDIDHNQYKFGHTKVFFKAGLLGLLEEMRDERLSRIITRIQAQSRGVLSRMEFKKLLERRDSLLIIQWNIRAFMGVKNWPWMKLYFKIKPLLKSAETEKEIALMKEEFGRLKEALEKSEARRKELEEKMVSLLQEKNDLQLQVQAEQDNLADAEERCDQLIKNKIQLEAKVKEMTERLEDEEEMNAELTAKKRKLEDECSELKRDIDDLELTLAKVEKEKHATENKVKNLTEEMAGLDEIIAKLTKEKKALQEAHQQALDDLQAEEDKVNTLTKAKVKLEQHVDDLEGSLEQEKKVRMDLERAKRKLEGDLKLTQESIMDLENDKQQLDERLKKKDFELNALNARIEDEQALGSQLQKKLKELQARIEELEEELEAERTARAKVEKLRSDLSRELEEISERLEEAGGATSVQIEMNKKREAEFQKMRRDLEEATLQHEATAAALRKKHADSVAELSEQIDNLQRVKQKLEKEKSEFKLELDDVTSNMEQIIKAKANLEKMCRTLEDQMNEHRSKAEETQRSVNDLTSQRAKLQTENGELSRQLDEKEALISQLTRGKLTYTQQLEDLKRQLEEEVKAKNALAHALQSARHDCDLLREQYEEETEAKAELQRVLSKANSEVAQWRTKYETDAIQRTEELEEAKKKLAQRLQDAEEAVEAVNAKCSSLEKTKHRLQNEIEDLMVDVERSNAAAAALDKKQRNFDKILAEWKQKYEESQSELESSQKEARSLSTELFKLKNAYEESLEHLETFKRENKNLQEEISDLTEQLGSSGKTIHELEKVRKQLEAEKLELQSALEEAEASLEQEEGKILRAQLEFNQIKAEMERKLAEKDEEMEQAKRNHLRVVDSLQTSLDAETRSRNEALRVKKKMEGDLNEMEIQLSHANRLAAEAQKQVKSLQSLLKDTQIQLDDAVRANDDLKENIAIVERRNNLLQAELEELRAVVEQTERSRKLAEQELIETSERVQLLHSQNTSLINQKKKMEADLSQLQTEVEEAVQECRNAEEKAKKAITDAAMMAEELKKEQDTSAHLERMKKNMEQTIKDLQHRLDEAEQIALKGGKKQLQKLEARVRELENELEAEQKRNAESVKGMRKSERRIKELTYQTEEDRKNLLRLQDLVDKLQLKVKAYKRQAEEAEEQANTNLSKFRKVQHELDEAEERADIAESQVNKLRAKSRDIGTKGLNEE
T2 sequence (P85100 whole entry partner): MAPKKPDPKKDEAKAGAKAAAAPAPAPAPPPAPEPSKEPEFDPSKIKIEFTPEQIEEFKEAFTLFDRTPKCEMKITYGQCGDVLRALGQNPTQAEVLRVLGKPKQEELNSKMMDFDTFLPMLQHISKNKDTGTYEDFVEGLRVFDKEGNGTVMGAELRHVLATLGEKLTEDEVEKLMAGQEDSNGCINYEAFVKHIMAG
T2 sequence (Q3SZE5 whole entry partner): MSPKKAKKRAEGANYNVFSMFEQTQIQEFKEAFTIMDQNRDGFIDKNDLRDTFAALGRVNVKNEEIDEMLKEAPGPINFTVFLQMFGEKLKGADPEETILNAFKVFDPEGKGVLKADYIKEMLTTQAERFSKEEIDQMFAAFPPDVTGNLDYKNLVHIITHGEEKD
Protocol: The purpose of this test was to evaluate the ability of compounds to inhibit the hydrolysis of ATP by cardiac myosin SII. The determination method was as follows: • 1. Solution formulation: • Preformed F-actin filaments (#AKF99-B, Cytoskeleton) were diluted to 1 mg/mL with Reaction buffer (15 mM Tris-HCL. PH7.5+10 mM KCl+0.1 mM EGTA+2 mM MgCl2); • Cardiac Muscle myosin (#MYO3-A, Cytoskeleton) was diluted to 1 mg/mL with Resuspension buffer (15 mM Tris-HCL, PH7.5+0.2M KCl+1 mM MgCl2); • ATP (#BSA04-001, Cytoskeleton) was diluted to 3 mM working solution with 15 mM Tris-HCL (PH=7.5); • 2. Formulation of working solution of compounds: the final compound concentration was 100 μM • 3. Experimental steps: • adding 10 μL of compound working solution+12 μL of Preformed F-actin filaments+3 μL of Cardiac Muscle myosin to the compound wells; • adding 10 μL of reaction buffer containing DMSO+12 μL Preformed F-actin filaments +3 μL Cardiac Muscle myosin to positive control wells; • adding 10 μL of reaction buffer containing DMSO+12 μL Preformed F-actin filaments +3 μL Resuspension buffer to negative control wells; • adding 5 μL of 3 mM ATP working solution to all test wells to start the reaction, gently mixing and incubating at 37° C. for 2 h; • after the reaction was completed, taking 6 μL of reaction liquid, adding 24 μL of reaction buffer for 5-fold dilution, then detecting the content of the product Pi with a phosphate kit (#BK054, Cytoskeleton); • adding a sample to Pi standard wells according to the instructions; • adding 70 μL of CytoPhos Reagent (#BK054, Cytoskeleton) to each well and incubating at room temperature for 10 min before detection. • 4. Detection: • the OD value of each well was detected at 650 nm. The standard curve was fitted according to Pi standard concentration and OD value, and the Pi concentration of each test well was obtained. Inhibition (%)=(positive control well−test well)/positive control well*100%.

[4] = Pharmacokinetic experiment in mouse muscle tissue (tibialis anterior / plasma); format: in vivo, C57 mice; settings: male, C57, tibialis anterior muscle / plasma, oral, intragastric 10 mg/kg, read-out: Ratio = Tibialis anterior Conc./Plasma Conc.
Protocol: 1. Experimental animals: Male C57 mice, 22-25 g, 6 mice/compound. Purchased from Chengdu Ddossy Experimental Animals Co., Ltd.
2. Experimental design: On the day of the experiment, C57 mice were randomly grouped according to their body weight. The animals were fasted with water available for 12 to 14 h one day before the administration and were fed 4 h after the administration. Administration was performed as per Table 10.1.

[5] = inhibition of hydrolysis of ATP, class symbols, read-out: Rabbit skeletal muscle myosin (IC50)
[6] = read-out: IC50 for inhibition of hydrolysis of ATP by rabbit skeletal muscle myosin

T1 sequence (P10587 84-789 limits assumed): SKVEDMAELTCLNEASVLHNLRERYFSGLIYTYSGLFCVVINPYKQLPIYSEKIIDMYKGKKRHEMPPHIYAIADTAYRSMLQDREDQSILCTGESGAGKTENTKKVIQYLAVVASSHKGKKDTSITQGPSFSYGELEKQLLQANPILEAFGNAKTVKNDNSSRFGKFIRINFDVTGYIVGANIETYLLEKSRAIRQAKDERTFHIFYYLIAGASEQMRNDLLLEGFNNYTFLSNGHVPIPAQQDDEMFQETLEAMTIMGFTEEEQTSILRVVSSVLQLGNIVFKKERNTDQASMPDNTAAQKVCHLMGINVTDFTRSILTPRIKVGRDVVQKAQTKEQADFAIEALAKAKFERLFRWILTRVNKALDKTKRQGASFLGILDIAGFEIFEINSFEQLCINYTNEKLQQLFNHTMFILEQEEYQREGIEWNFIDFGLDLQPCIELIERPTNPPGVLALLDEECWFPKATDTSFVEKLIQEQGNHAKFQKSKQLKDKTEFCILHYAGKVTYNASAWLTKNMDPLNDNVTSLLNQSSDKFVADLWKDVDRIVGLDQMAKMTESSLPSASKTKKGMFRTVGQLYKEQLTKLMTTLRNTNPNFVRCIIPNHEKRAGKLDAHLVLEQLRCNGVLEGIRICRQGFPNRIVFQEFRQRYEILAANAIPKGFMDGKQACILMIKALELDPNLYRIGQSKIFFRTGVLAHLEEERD
T1 sequence (P02607 whole entry partner, the tested form may be a part): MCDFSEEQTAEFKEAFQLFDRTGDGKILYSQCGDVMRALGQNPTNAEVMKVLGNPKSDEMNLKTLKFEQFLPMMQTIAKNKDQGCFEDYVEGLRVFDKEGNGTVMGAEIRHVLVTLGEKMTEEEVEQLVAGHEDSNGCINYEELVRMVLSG

SMILES | inhibition at 100 µM [1] [%] | pIC50 [2, 5] | pIC50 [2, 6] | inhibition at 100 µM [3] [%] | Kp at 6 h ([4]; 6 h) | Kp at 24 h ([4]; 24 h)
CC(F)(F)COc1ncc(-c2ccc(=O)n(Cc3ccc4c(c3)C(=O)CC4)n2)cn1 [Compound 139] | 6 | > 5.60 | 6.22 | 6 | 63.5 | 85.5
CN1CC(Oc2ncc(-c3ccc(=O)n(Cc4ccc5c(c4)CC5)n3)cn2)C1 [Compound 104] | 20.7 | > 5.60 | 6.10 | 8.9 | – | –
O=C1CCc2cc(F)c(Cn3nc(-c4cnc(OCC(F)(F)F)nc4)ccc3=O)cc21 [Compound 136] | -4 | > 5.60 | – | -7 | – | –
O=C1CCc2ccc(Cn3nc(-c4cnc(Oc5cncc(C(F)(F)F)c5)nc4)ccc3=O)cc21 [Compound 142] | 2 | 4.70 to 5.60 | – | -8 | – | –
O=C1CCc2c(Cl)cc(Cn3nc(-c4cnc(OCC(F)(F)F)nc4)ccc3=O)cc21 [Compound 166] | 6 | > 5.60 | – | 17 | – | –
O=c1ccc(-c2cnc(OCC(F)(F)F)nc2)nn1Cc1ccc2c(c1)CC1CC21 (centres unmarked) [Compound 156] | -11 | > 5.60 | 6.05 | 7 | – | –

Other lines, results leading:

inhibition at 100 µM [1] [%] | pIC50 [2, 5] | pIC50 [2, 6] | inhibition at 100 µM [3] [%] | Kp at 6 h ([4]; 6 h) | Kp at 24 h ([4]; 24 h) | SMILES
-6 | > 5.60 | 6.10 | 1 | – | – | CC(F)(F)COc1ncc(-c2ccc(=O)n(Cc3ccc4c(c3)CCC4)n2)cn1 [Compound 110]
16 | > 5.60 | 6.05 | 16 | – | – | N#CC1(COc2ncc(-c3ccc(=O)n(Cc4ccc5c(c4)CCC5)n3)cn2)CC1 [Compound 105]
8 | > 5.60 | – | -4 | – | – | O=c1ccc(-c2cnc(Oc3ccnc(C(F)(F)F)c3)nc2)nn1Cc1ccc2c(c1)CCC2 [Compound 133]
7 | > 5.60 | 6.30 | 7 | – | – | O=c1ccc(-c2cnc(O[C@@H]3CCOC3)nc2)nn1Cc1ccc2c(c1)CCC2 [Compound 126]
2 | 4.70 to 5.60 | – | 3 | – | – | O=c1ccc(-c2cnc(Oc3nccs3)nc2)nn1Cc1ccc2c(c1)CCC2 [Compound 130]
-13 | > 5.60 | – | 0 | – | – | O=c1ccc(-c2cnc(OCC3(F)CCC3)nc2)nn1Cc1ccc2c(c1)CCC2 [Compound 113]
